{"source": "patent US11571421B2", "about": "“GABAA positive allosteric modulator compounds for treatment of itch and/or dermatitis” (NeuroCycle Therapeutics, Inc., priority 2018, dated 2023)", "type_in_all_cases": "in vivo", "key": {"Male C57BL/6 Mice": {"tested_on": "Male C57BL/6 Mice", "assay": "Sedation, behavioral change and clinical signs observed in Example 1", "procedure": "Animals were dosed per oral with respective treatment group using a dose volume of 10 ml/kg. Times of dosing were recorded. Immediately after compound treatment, animals were kept in an empty transparent chamber (23 cm length×17 cm width) for acclimatization and observation.\nNinety (90) minutes post compound dosing, 50-μl of chloroquine phosphate solution (a 200-μg dose) was injected intracutaneously into the animal's right cheek. Animals were returned to the same chamber for observation. Animals were observed by an observer blind to the treatment group for a period of 30 minutes post chloroquine injection. Total number of bouts of scratching directed at the ipsilateral cheek were recorded for 30 minutes."}, "[1]": {"tested_on": "Bile Acid Itch Model in Male C57BL/6 Mice", "assay": "Bile acid (deoxycholic acid) induced itch model (Example 9)", "details": "10 mg/kg oral gavage 90 min before deoxycholic acid (25 μg)", "procedure": "In order to assess the antipruritic effect of PF-06372865 in another clinically relevant disease, the bile acid induced itch model is used. In the bile acid induced itch model, the fur at the base of the neck is shaved, and mice are placed in individual cylinders on a glass shelf. Mice are acclimatized to the experimental room, restraint apparatus and investigators for 2-hour periods on 2 successive days before experiments. The mice are dosed with 10 mg/kg PF-06372865 by oral gavage ninety (90) minutes before they are injected with deoxycholic acid. Deoxycholic acid (25 μg in DMSO), is administered by intradermal injection at the nape of the neck. Scratching behavior is quantified by 2 observers unaware of tested agents. A scratch is defined as lifting the hind limb to the injection site and then a placing of the paw on the floor, regardless of the number of strokes. If counts differed by greater than 5 scratches over a 30-minute period, both observers reevaluate the records. The number of scratching bouts directed to the nape of the neck between 15 to 210 min after injection are recorded."}, "[2]": {"tested_on": "Dry Itch Model in Male C57BL/6 Mice", "assay": "Dry skin itch model (Example 8)", "details": "10 mg/kg intraperitoneal; 15 to 210 min after injection", "procedure": "In order to assess the antipruritic effect of PF-06372865 in another clinically relevant disease, the dry skin model of dermatitis is used. In the dry skin model, mice are treated with a mixture of acetone and diethylether (1:1) on the shaved nape of the neck for 15 s, followed by distilled water for 30 sec, twice daily for 10 days. On the day of the experiment, mice received intraperitoneal injection of vehicle or PF-06372865 (10 mg/kg). The number of scratching bouts directed to the nape of the neck between 15 to 210 min after injection are recorded."}, "[3]": {"tested_on": "Histamine-Induced Itch Model in Male C57BL/6 Mice", "assay": "Histamine-Induced Itch Model (Example 3)", "details": "oral gavage 90 min before 100 μg histamine cheek injection; 1, 3, 10, 30 and 100 mg/kg", "procedure": "PF-06372865 (an alpha 2, alpha 3, and alpha 5 agonist; and an alpha 1 antagonist) is assessed for its antipruritic effects against a cheek injection of 100 μg histamine in wild-type C57BL/6 mice. The mice are dosed with PF-06372865 by oral gavage ninety (90) minutes before histamine injection. Doses of PF-06372865 are vehicle, 1, 3, 10, 30 and 100 mg/kg."}, "[4]": {"tested_on": "Oxazolone-induced Itch Model in Male C57BL/6 Mice", "assay": "Oxazolone-induced dermatitis model of chronic itch (Example 7)", "procedure": "In order to assess: the antipruritic effect of PF-06372865 in a clinically relevant disease, the development of a tolerance towards the antipruritic effect of PF-06372865, and the effect of PF-06372865 in reducing dermatitis after prolonged treatment, the oxazolone-induced dermatitis model of chronic itch is used. To this end, wild-type C57Bl/6 mice are treated with 100 μL of 10% oxazolone (4-Ethoxymethylene-2-phenyl-2-oxazolin-5-one) dissolved in acetone/olive oil (4:1) on the nape of the neck. From day 7 to day 31 these mice are treated every other day with 100 μL 1% oxazolone to induce and maintain dermatitis and chronic itch. From day 17 onward, mice are treated with intraperitoneal injection of vehicle or 10 mg/kg PF-06372865 for thirteen consecutive days. On day 31, mice are given either intraperitoneal injection of vehicle or PF-06372865 (10 mg/kg). The number of scratching bouts directed to the nape of the neck between 15 to 210 min after injection are recorded. […] This is independent of the treatment they received from day 7 to day 30. […] To quantify the severity of skin lesions, a dermatitis score are determined. Hemorrhage/erythema, dryness/scaring and hyperplasia (Yamada et. al. Exp Dermatol. 2016, 25, 611-617) are scored as 0 (none), 1 (mild), 2 (moderate) or 3 (severe) once per day resulting in a score between 0 and 9. […]"}}, "data": [{"smiles": "CCn1cnc2c(-c3ccc(F)c(-c4ccc(S(=O)(=O)CC)cc4OC)c3)cnnc21", "note": "[PF-06372865]", "values": [{"measurement": "sedation", "setting": "Male C57BL/6 Mice; 3 mg/kg PO", "result": "Minimal sedation"}, {"measurement": "other behavioral change or clinical sign", "setting": "Male C57BL/6 Mice; any of the PF-06372865 treatment groups (0.3-30 mg/kg PO)", "result": "No other behavioral change or clinical sign were observed"}, {"measurement": "sedation", "setting": "Male C57BL/6 Mice; at 10 mg/kg and 30 mg/kg PO", "result": "Dose dependent increase in sedation"}, {"measurement": "scratching bouts compared to vehicle injection", "setting": "[1]", "result": "significant reduction in scratching bouts"}, {"measurement": "scratching bouts compared to vehicle injection", "setting": "[2]", "result": "significant reduction in scratching bouts"}, {"measurement": "scratching bouts, histaminergic itch", "setting": "[3]", "result": "dose-dependent reduction of scratching bouts"}, {"measurement": "skin lesions (dermatitis score)", "setting": "[4]; 10 mg/kg intraperitoneal for thirteen consecutive days", "result": "significant reduction in skin lesions"}, {"measurement": "scratching bouts compared to vehicle injection", "setting": "[4]; 10 mg/kg intraperitoneal on day 31, 15 to 210 min after injection", "result": "significant reduction in scratching bouts"}]}]}
